This is an account of results in US20190265319A1, “SYSTEM AND METHOD FOR SMALL MOLECULE ACCURATE RECOGNITION TECHNOLOGY ("SMART")” (THE REGENTS OF THE UNIVERSITY OF CALIFORNIA, priority 2016, published 2019).

Peptide text beside a SMILES is read from it.

This data set concerns H-460 human lung cancer cells. It is filed as cell-based. The following applies: for IC50: H-460 human lung cancer cells.

viequeamide X: the H-460 cytotoxicity entry is recorded as “no appreciable H-460 cytotoxicity”. Still for that read-out and setting: as for viequeamide H, the entry is “no appreciable H-460 cytotoxicity”; as for `C=CCCC[C@@H]1OC(=O)[C@H](C(C)C)NC(=O)[C@H](C)N(C)C(=O)[C@@H]2CCCN2C(=O)[C@H](Cc2ccccc2)OC(=O)[C@H](C(C)C)N(C)C(=O)[C@H](C(C)C)NC(=O)C1(C)C` [viequeamide C] (HELM PEPTIDE1{V.[meV].[O=C([C@H](Cc1ccccc1)O[*:1])[*:2]].P.[meA].V}|CHEM1{[C=CCCC[C@H](O[*:2])C(C)(C)C(=O)[*:1]]}$PEPTIDE1,CHEM1,1:R1-1:R1|PEPTIDE1,CHEM1,6:R2-1:R2$$$V2.0), “no appreciable H-460 cytotoxicity”.

Take `CCCCC[C@@H]1OC(=O)[C@H](C(C)C)NC(=O)[C@H](C)N(C)C(=O)[C@@H]2CCCN2C(=O)[C@H](Cc2ccccc2)OC(=O)[C@H](C(C)C)N(C)C(=O)[C@H](C(C)C)NC(=O)C1(C)C` [viequeamide D] (HELM PEPTIDE1{V.[meV].[O=C([C@H](Cc1ccccc1)O[*:1])[*:2]].P.[meA].V}|CHEM1{[CCCCC[C@H](O[*:2])C(C)(C)C(=O)[*:1]]}$PEPTIDE1,CHEM1,1:R1-1:R1|PEPTIDE1,CHEM1,6:R2-1:R2$$$V2.0): the H-460 cytotoxicity result is on record as “no appreciable H-460 cytotoxicity”.

Take `C#CCCC[C@@H]1OC(=O)[C@H](C(C)C)NC(=O)[C@H](C)N(C)C(=O)[C@@H]2CCCN2C(=O)[C@H](Cc2ccccc2)OC(=O)[C@H](C(C)C)N(C)C(=O)[C@H](C(C)C)NC(=O)C1(C)C` [viequeamide B] (HELM PEPTIDE1{V.[meV].[O=C([C@H](Cc1ccccc1)O[*:1])[*:2]].P.[meA].V}|CHEM1{[C#CCCC[C@H](O[*:2])C(C)(C)C(=O)[*:1]]}$PEPTIDE1,CHEM1,1:R1-1:R1|PEPTIDE1,CHEM1,6:R2-1:R2$$$V2.0): the H-460 cytotoxicity result is recorded as “no appreciable H-460 cytotoxicity”. viequeamide G: the H-460 cytotoxicity result is “no appreciable H-460 cytotoxicity”. The compound viequeamide A3 yielded a half-inhibitory concentration (IC50) of 1980 nM.

In the case of viequeamide A2, half-maximal inhibition (IC50) required 620 nM.
